Assay: xn = mol fraction of the nth substance listed
Conditions: 101 kPa, Liquid; for viscosity: Capillary tube (Ostwald / Ubbelohde) method

COC(C)(C)C [2-methoxy-2-methylpropane] + CCCCCCCCCC
Conditions | mass density [kg/m3] | viscosity [mPa·s]
328.15 K, x1 = 0.8999 | 702.55 | –
333.15 K, x1 = 0.1016 | – | 0.514
333.15 K, x1 = 0.1019 | 699 | –
333.15 K, x1 = 0.2002 | – | 0.489
333.15 K, x1 = 0.2041 | 698.64 | –
333.15 K, x1 = 0.3003 | – | 0.459
333.15 K, x1 = 0.3077 | 698.34 | –
333.15 K, x1 = 0.3999 | 698.05 | –
333.15 K, x1 = 0.4013 | – | 0.432
333.15 K, x1 = 0.4992 | – | 0.399
333.15 K, x1 = 0.5005 | 697.78 | –
333.15 K, x1 = 0.6005 | – | 0.371
333.15 K, x1 = 0.6066 | 697.5 | –
333.15 K, x1 = 0.6866 | 697.32 | –
333.15 K, x1 = 0.7973 | 697.15 | –
338.15 K, x1 = 0.1016 | – | 0.489
338.15 K, x1 = 0.1019 | 695.02 | –
338.15 K, x1 = 0.2002 | – | 0.466
338.15 K, x1 = 0.2041 | 694.56 | –
338.15 K, x1 = 0.3003 | – | 0.438
338.15 K, x1 = 0.3077 | 694.14 | –
338.15 K, x1 = 0.3999 | 693.73 | –
338.15 K, x1 = 0.4013 | – | 0.413
338.15 K, x1 = 0.4992 | – | 0.382
338.15 K, x1 = 0.5005 | 693.31 | –
338.15 K, x1 = 0.6005 | – | 0.359
338.15 K, x1 = 0.6066 | 692.86 | –
338.15 K, x1 = 0.6866 | 692.58 | –
338.15 K, x1 = 0.7973 | 692.06 | –
343.15 K, x1 = 0.1016 | – | 0.466
343.15 K, x1 = 0.1019 | 691.02 | –
343.15 K, x1 = 0.2002 | – | 0.445
343.15 K, x1 = 0.2041 | 690.46 | –
343.15 K, x1 = 0.3003 | – | 0.42
343.15 K, x1 = 0.3077 | 689.92 | –
343.15 K, x1 = 0.3999 | 689.38 | –
343.15 K, x1 = 0.4013 | – | 0.398
343.15 K, x1 = 0.4992 | – | 0.369
343.15 K, x1 = 0.5005 | 688.8 | –
343.15 K, x1 = 0.6066 | 688.18 | –
343.15 K, x1 = 0.6866 | 687.71 | –
343.15 K, x1 = 0.7973 | 686.92 | –
348.15 K, x1 = 0.1016 | – | 0.443
348.15 K, x1 = 0.1019 | 687.01 | –
348.15 K, x1 = 0.2002 | – | 0.424
348.15 K, x1 = 0.2041 | 686.34 | –
348.15 K, x1 = 0.3003 | – | 0.402
348.15 K, x1 = 0.3077 | 685.67 | –
348.15 K, x1 = 0.3999 | 685.01 | –
348.15 K, x1 = 0.4013 | – | 0.383
348.15 K, x1 = 0.5005 | 684.26 | –
348.15 K, x1 = 0.6066 | 683.43 | –
353.15 K, x1 = 0.1016 | – | 0.422
353.15 K, x1 = 0.1019 | 682.96 | –
353.15 K, x1 = 0.2002 | – | 0.406
353.15 K, x1 = 0.2041 | 682.18 | –
353.15 K, x1 = 0.3003 | – | 0.386
353.15 K, x1 = 0.3077 | 681.38 | –
353.15 K, x1 = 0.3999 | 680.59 | –
353.15 K, x1 = 0.4013 | – | 0.372
353.15 K, x1 = 0.5005 | 679.69 | –
353.15 K, x1 = 0.6066 | 678.65 | –
358.15 K, x1 = 0.1016 | – | 0.407
358.15 K, x1 = 0.1019 | 678.89 | –
358.15 K, x1 = 0.2002 | – | 0.388
358.15 K, x1 = 0.2041 | 678 | –
358.15 K, x1 = 0.3003 | – | 0.372
358.15 K, x1 = 0.3077 | 677.06 | –
358.15 K, x1 = 0.3999 | 676.14 | –
363.15 K, x1 = 0.1019 | 674.79 | –
363.15 K, x1 = 0.2041 | 673.78 | –
363.15 K, x1 = 0.3077 | 672.71 | –
363.15 K, x1 = 0.3999 | 671.66 | –

From the NIST ThermoML archive (doi:10.1021/je700428f)
